{"source": "paper PMC12365235", "about": "“Molecular mechanisms of thiazide-like diuretics-mediated inhibition of the human Na-Cl cotransporter” (Nature Communications, 2025)", "test_system": "hNCC(V231M)", "assay": "125I- uptake assay, hNCC(V231M) variant", "format": "cell-based, human", "conditions": "V231M polymorphism", "procedure": "HEK293S cell lines, cultured in 293 Freestyle medium (Life Technologies; plus 10% fetal bovine serum), stably expressing hNCC and its variants were generated following published protocols. Cells were transfected using Lipofectamine 3000 (Invitrogen) with a pSBbi-RP-based plasmid containing hNCC or its variants and the SB100X vector. Puromycin (2 μg/mL; Gemini Bio-Products) was used for selection of stable cell lines.\nTo prepare for the uptake experiment, cells were plated at 0.5 × 10^6 cells/well in 24-well plates one day in advance. To activate NCC, cells were treated with a chloride-free hypotonic solution composed of 67.5 mM sodium-, 2.5 mM potassium-, 0.25 mM magnesium-, and 0.25 mM calcium-gluconate, as well as 7.5 mM HEPES pH 7.4 (buffered using Tris) at 37 °C for 10 min[72]. After the activation step, the experiments were carried out at room temperature. Ten minutes before the start of ^125I^− uptake, 70 μM Bumetanide (Thermo Scientific Chemicals) and 100 μM 4,4′-diisothiocyanatostilbene-2,2′-disulfonic acid (DIDS; Sigma) were added to suppress background iodide uptake activity. Indicated thiazide diuretics were also added to the indicated concentrations 10 min before the start of ^125I^− uptake. The original buffer was switched to an uptake buffer composed of 135 mM Na-gluconate, 5 mM K-gluconate, 1 mM Mg-gluconate, 1 mM Ca-gluconate, 70 μM bumetanide, 100 μM DIDS, 1 mM NaI, 0.25 μCi/ml Na^125I (American Radiolabeled Chemicals, Inc.), and 15 mM HEPES pH 7.4 (buffered using Tris), in the presence or absence of thiazide diuretics to initiate ^125I^− uptake. The ^125I^− uptake process lasted 1 h and was stopped by two rapid washes using ice-cold 110 mM MgCl2. Cells lysed using 1% sodium dodecyl sulfate (SDS) were analyzed by scintillation counting.\nTo calculate the fold change of the half-maximal inhibitory concentration (IC50) between hNCC(WT) and different hNCC variants, individual dose-response curves were normalized first using the smallest mean and the value of the lowest concentration as 0% and 100%, respectively. The normalized data were then fitted using the “EC50 shift” nonlinear regression in GraphPad Prism 10 with the shared EC50Control assigned to be the IC50 of hNCC(WT). The following constraints were used in the EC50 shift analysis. The EC50Control was set to be shared across all curves under analysis and constrained to be greater than 0. The EC50Ratio was constrained to be greater than 0. The bottom, top, and HillSlope were constrained to be 0, 100, and −1, respectively. For Fig. 1f, g and Supplementary Fig. 2d, GraphPad Prism 10 was used to perform curve fitting and IC50 calculation for normalized data using y = 100/(1 + (x/IC50)).", "data": [{"molecule": "NS(=O)(=O)c1cc2c(cc1Cl)NCNS2(=O)=O", "note": "[hydrochlorothiazide]", "values": [{"measurement": "sensitivity relative to hNCC(WT) (fold lower)", "result": "nearly as sensitive as the wild-type"}]}]}
